This note sets out measurements from publication PMC10641236, “Influenza A virus replication has a stronger dependency on Raf/MEK/ERK signaling pathway activity than SARS-CoV-2” (Frontiers in Cellular and Infection Microbiology, 2023).

In general, IC50 refers to the concentration at which inhibition is half-maximal.

Assay [1] deals with MEK1/2 (ERK1/2 phosphorylation). The assay can be described thus: IC50 determination in the absence of viral infection, TNF-α-stimulated cells, pERK/ERK ratio by WES. It counts as cell-based. The note with it: Homo sapiens, TNF-α 30 min then 1 h treatment, no virus. As to the method:
Cells were lysed using cold modified RIPA buffer [0.24% (w/v) tris base (Sigma-Aldrich, St. Louis, Missouri, USA), 0.88% (w/v) NaCl (Carl Roth, Karlsruhe, Germany), 0.2% (v/v) 500 mM ethylenediaminetetraacetic acid (EDTA) (Sigma-Aldrich, St. Louis, Missouri, USA), 1% (v/v) Triton X-100 (Sigma-Aldrich, St. Louis, Missouri, USA), 0.5% (w/v) sodium deoxycholate (Sigma-Aldrich, St. Louis, Missouri, USA), 0.1% (w/v) sodium dodecyl sulfate (SDS) (Carl Roth, Karlsruhe, Germany), 10% (v/v) glycerol (Carl Roth, Karlsruhe, Germany), 0.05% phenylmethylsulfonyl fluoride (PMSF) (Carl Roth, Karlsruhe, Germany), 0.01% Benzonase® Nuclease (Sigma-Aldrich, St. Louis, Missouri, USA), protease inhibitor cocktail (Roche, Basel, Switzerland), and phosphatase inhibitor cocktail (Roche, Basel, Switzerland) in water]. Determination of the protein concentration was performed using the Pierce™ BCA Protein Assay Kit (Thermo Fisher Scientific Inc., Waltham, MA, USA) according to the manufacturer’s instructions. The samples were analyzed by Wes™ using a total protein concentration of 0.25–0.5 µg/µL for each sample, the Jess/Wes Separation kit (12–230 kDa), primary antibodies against ERK1/2, p44/42 MAPK (137F5) Rabbit mAb (Cell Signaling Technology, Danvers, MA, USA, Cat. No. 4695S) and phospho-ERK1/2 (pERK1/2), Phospho-p44/42 MAPK (Erk1/2) (Thr202/Tyr204) (D13.14.4E), XP® Rabbit mAb (Cell Signaling Technology, Danvers, MA, USA, Cat. no. 4370S) in a 1:50 dilution, anti-Influenza A virus Nucleoprotein (NP) antibody (rabbit MAb) (Sino Biological, Beijing, China Cat.no 40208-R010) in a 1:150 dilution, SARS-CoV-2 nucleocapsid protein antibody (ProSci Inc., Poway, CA, USA, Cat. no. 35-580) in a 1:100 dilution, the anti-goat, anti-rabbit, and anti-mouse detection modules, and the EZ Standard Pack 1 (12–230 kDa), according to the manufacturer’s instructions. Analysis of the obtained data was performed using the Compass for SW 4.1.0 software, Microsoft Excel, and the GraphPad Prism 9.2.0 software. Ratios were calculated from the area under the curve of the respective detected signals.
Twenty-four hours before the experiment, the growth medium was exchanged to medium with respective FBS or BSA concentration. Then, cells were stimulated by the addition of tumor necrosis factor alpha (TNF-α) (Sigma-Aldrich, St. Louis, Missouri, USA) for 30 min at 37°C, 5% CO2, followed by treatment with different zapnometinib concentrations and a DMSO (solvent) control for 1 h. For determination of the IC50 value in cells infected with IAV PR8 or SARS-CoV-2, cells were infected with the respective virus and treated with zapnometinib for 24 h as described in the “Virus yield reduction assay” section. After incubation, cell lysates were prepared, and the samples were analyzed by WES™ as described in the “Preparation of cell lysates and WES™ analysis” section. The pERK/ERK ratio was calculated and normalized to the solvent control. IC50 values were determined using the “log(inhibitor) vs. response -Variable slope (four parameters)” equation in GraphPad Prism version 9.4.0.

The subject of assay [2] is TMPRSS2. The assay can be described thus: TMPRSS2 expression by flow cytometry. It counts as cell-based, Homo sapiens. The note with it: Caco-2 cells, 24 h. As to the method:
For flow cytometry analysis, 6 × 10^5 Caco-2 cells were seeded per well in six-well plates (Greiner Bio-One, Kremsmünster, Austria) and incubated for 24 h at 37°C, 5% CO2. Treatment with zapnometinib or a solvent control (1% DMSO) in medium containing 0.2% BSA was applied for 24 h. A single-cell solution was prepared using TrypLE reagent (Thermo Fisher Scientific, Waltham, MA, USA). Prior to staining, cells were treated with an FcR blocking reagent (Miltenyi Biotec, Bergisch Gladbach, Germany) for 10 min at 4°C. The cells were then stained with either a PE Mouse IgG1Isotype control antibody (BioLegend, San Diego, CA, USA) or a PE anti-human TMPRSS2 Antibody (BioLegend, San Diego, CA, USA), followed by a live-dead staining using the LIVE/DEAD™ Fixable Far Red Dead Cell Stain Kit (Thermo Fisher Scientific, Waltham, MA, USA). Cells were analyzed using the BD FACSCanto II flow cytometer (Becton Dickinson, Franklin Lakes, New Jersey, USA) and the FlowJo software (Becton Dickinson, Franklin Lakes, New Jersey, USA).
(Flow cytometry measures light scatter and fluorescence of single cells or particles in a stream.)

On to `O=C(O)c1ccc(F)c(F)c1Nc1ccc(I)cc1Cl` [zapnometinib, 2-(2-chloro-4-iodophenylamino)-N-3,4-difluoro benzoic acid], for which the IC50 in assay [1] (Caco-2, Caco-2 cells, 0% FBS) is 0.04 µM; in assay [1] (Caco-2, Caco-2 cells, 0.2% BSA), 4.32 µM; in assay [1] (Caco-2, Caco-2 cells, 5% FBS), 4.46 µM; in assay [1] (Caco-2, Caco-2 cells, 10% FBS), 9.15 µM; in assay [1] (Calu-3, Calu-3 cells, 0% FBS), 0.06 µM; in assay [1] (Calu-3, Calu-3 cells, 0.2% BSA), 5.33 µM. The IC50 in assay [1] (Calu-3, Calu-3 cells, 5% FBS) was determined as 6.64 µM; in assay [1] (Calu-3, Calu-3 cells, 10% FBS) it was 8.25 µM. For the same compound, the “increase of TMPRSS2 expression” value in assay [2] (50 µM) was determined as 14%; in assay [2] (100 µM) it was 17%.
